Test results taken from patent US6737383B1, “Herbicidal oxadiazolidines” (priority 1999, dated 2004).

Legend:
dallisgrass = assay: Test D dallisgrass; assay type: in vivo, Paspalum dilatatum; settings: Postemergence, 0 to 100 scale
pitted morningglory = assay: Test D pitted morningglory; assay type: in vivo, Ipomoea lacunosa; settings: Postemergence, 0 to 100 scale
Green foxtail [1] = assay: Test D green foxtail; assay type: in vivo; settings: Postemergence, 0 to 100 scale, 0 no injury, 100 complete control
guineagrass = assay: Test D guineagrass; assay type: in vivo, Panicum maximum; settings: Postemergence, 0 to 100 scale
surinam grass = assay: Test D surinam grass; assay type: in vivo, Brachiaria decumbens; settings: Postemergence, 0 to 100 scale
purple nutsedge = assay: Test D purple nutsedge; assay type: in vivo, Cyperus rotundus; settings: Postemergence, 0 to 100 scale
Johnson grass = assay: Test D Johnson grass; assay type: in vivo, Sorghum halepense; settings: Postemergence, 0 to 100 scale
common groundsel = assay: Test D common groundsel; assay type: in vivo, Senecio vulgaris; settings: Postemergence, 0 to 100 scale
Spanishneedles = assay: Test D Spanishneedles; assay type: in vivo, Bidens bipinnata; settings: Postemergence, 0 to 100 scale
tall mallow = assay: Test D tall mallow; assay type: in vivo, Malva sylvestris; settings: Postemergence, 0 to 100 scale
common ragweed = assay: Test D common ragweed; assay type: in vivo, Ambrosia elatior; settings: Postemergence, 0 to 100 scale
Green foxtail [2] = assay: Test D green foxtail; assay type: in vivo; settings: Postemergence, 0 to 100 scale, 0 no injury, 100 complete control; remark: listed apart in the source
Green foxtail [3] = assay: Test D green foxtail; assay type: in vivo; settings: Postemergence, 0 to 100 scale, 0 no injury, 100 complete control; remark: listed apart in the source
goosegrass = assay: Test D goosegrass; assay type: in vivo, Eleusine indica; settings: Postemergence, 0 to 100 scale
common pursiane = assay: Test D common purslane; assay type: in vivo, Portulaca oleracea; settings: Postemergence, 0 to 100 scale
Green foxtail [4] = assay: Test D green foxtail; assay type: in vivo; settings: Rate 250 g/ha; Postemergence; 0 to 100 scale
sandbur = assay: Test D sandbur; assay type: in vivo, Cenchrus echinatus; settings: Postemergence, 0 to 100 scale
[5] = Rate 16 g/ha, 0 no injury, 100 complete control
[6] = Rate 32 g/ha, 0 no injury, 100 complete control
[7] = Rate 64 g/ha, 0 no injury, 100 complete control
[8] = Rate 125 g/ha, 0 no injury, 100 complete control

## COCC(C)n1c(=O)on(C(=O)N(c2ccc(F)cc2F)C(C)C)c1=O (centres unmarked) [Compound 357]
dallisgrass; [5]
  Plant response rating, Dallisgrass: 0
dallisgrass; [6]
  Plant response rating, Dallisgrass: 20
dallisgrass; [7]
  Plant response rating, Dallisgrass: 100
dallisgrass; [8]
  Plant response rating, Dallisgrass: 100
dallisgrass; Rate 250 g/ha
  Plant response rating, Dallisgrass: 100
Pitted morningglory; [5]
  Plant response rating, P. morninglory: 0
Pitted morningglory; [6]
  Plant response rating, P. morninglory: 0
Pitted morningglory; [7]
  Plant response rating, P. morninglory: 0
Pitted morningglory; [8]
  Plant response rating, P. morninglory: 0
Pitted morningglory; Rate 250 g/ha
  Plant response rating, P. morninglory: 0
Green foxtail [1]; Rate 16 g/ha
  Plant response rating, Green foxtail: 10
Green foxtail [1]; Rate 32 g/ha
  Plant response rating, Green foxtail: 30
guineagrass; [5]
  Plant response rating, Guineagrass: 0
guineagrass; [6]
  Plant response rating, Guineagrass: 0
guineagrass; [7]
  Guineagrass plant response rating: 60
  Plant response rating, Guineagrass: 20
guineagrass; [8]
  Plant response rating, Guineagrass: 70
guineagrass; Rate 250 g/ha
  Plant response rating, Guineagrass: 100
Surinam grass; [5]
  Plant response rating, Surinam grass: 0
Surinam grass; [6]
  Plant response rating, Surinam grass: 20
Surinam grass; [7]
  Surinam grass plant response rating: 80
Surinam grass; [8]
  Surinam grass plant response rating: 100
Surinam grass; Rate 250 g/ha
  Plant response rating, Surinam grass: 100
Purple nutsedge; [5]
  Plant response rating, Purple nutsedge: 0
Purple nutsedge; [6]
  Plant response rating, Purple nutsedge: 0
Purple nutsedge; [7]
  Purple nutsedge plant response rating: 0
Purple nutsedge; [8]
  Purple nutsedge plant response rating: 0
Purple nutsedge; Rate 250 g/ha
  Plant response rating, Purple nutsedge: 50
Johnson grass; [5]
  Plant response rating, Johnsongrass: 0
Johnson grass; [6]
  Plant response rating, Johnsongrass: 0
Johnson grass; [7]
  Plant response rating, Johnsongrass: 0
Johnson grass; [8]
  Plant response rating, Johnsongrass: 60
Johnson grass; Rate 250 g/ha
  Plant response rating, Johnsongrass: 90
Common groundsel; [6]
  Plant response rating, Com. groundsel: 40
Common groundsel; [7]
  Plant response rating, Com. groundsel: 100
Common groundsel; [8]
  Plant response rating, Com. groundsel: 100
Common groundsel; Rate 250 g/ha
  Plant response rating, Com. groundsel: 100
Spanishneedles; [5]
  Plant response rating, Spanishneedles: 10
Spanishneedles; [6]
  Plant response rating, Spanishneedles: 10
Spanishneedles; [7]
  Spanishneedles plant response rating: 10
Spanishneedles; [8]
  Spanishneedles plant response rating: 10
Spanishneedles; Rate 250 g/ha
  Plant response rating, Spanishneedles: 20
Tall mallow; [5]
  Plant response rating, Tall Mallow: 10
Tall mallow; [6]
  Plant response rating, Tall Mallow: 10
Tall mallow; [7]
  Tall Mallow plant response rating: 20
Tall mallow; [8]
  Tall Mallow plant response rating: 50
Tall mallow; Rate 250 g/ha
  Plant response rating, Tall Mallow: 100
Common ragweed; [5]
  Plant response rating, C. ragweed: 0
Common ragweed; [7]
  Plant response rating, C. ragweed: 0
Common ragweed; [8]
  Plant response rating, C. ragweed: 0
Common ragweed; Rate 250 g/ha
  Plant response rating, C. ragweed: 50
Green foxtail [2]; Rate 16 g/ha
  Plant response rating, Green foxtail: 10
Green foxtail [2]; Rate 32 g/ha
  Plant response rating, Green foxtail: 30
Green foxtail [3]; Rate 64 g/ha
  Green foxtail plant response rating: 100
Green foxtail [3]; Rate 125 g/ha
  Green foxtail plant response rating: 100
goosegrass; [5]
  Plant response rating, Goosegrass: 90
goosegrass; [6]
  Plant response rating, Goosegrass: 100
goosegrass; [7]
  Plant response rating, Goosegrass: 100
goosegrass; [8]
  Plant response rating, Goosegrass: 100
goosegrass; Rate 250 g/ha
  Plant response rating, Goosegrass: 100
Common pursiane; [5]
  Plant response rating, C. purslane: 0
Common pursiane; [6]
  Plant response rating, C. purslane: 0
Common pursiane; [7]
  Plant response rating, C. purslane: 0
Common pursiane; [8]
  Plant response rating, C. purslane: 0
Common pursiane; Rate 250 g/ha
  Plant response rating, C. purslane: 0
Green foxtail [4]
  Plant response rating, Green foxtail: 100
sandbur; [5]
  Plant response rating, Sandbur: 0
sandbur; [6]
  Plant response rating, Sandbur: 0
sandbur; [7]
  Sandbur plant response rating: 0
sandbur; [8]
  Sandbur plant response rating: 0
sandbur; Rate 250 g/ha
  Plant response rating, Sandbur: 100
